IC50 data for 27 compounds are collected here from ChEMBL document CHEMBL1156928, “Design of novel nicotinamides as potent and selective monoamine oxidase a inhibitors” (Bioorg Med Chem, 2010).

In assay [1] the target is T1, Amine oxidase [flavin-containing] A (Rattus norvegicus, UniProt P21396).
T1 sequence (P21396 whole entry): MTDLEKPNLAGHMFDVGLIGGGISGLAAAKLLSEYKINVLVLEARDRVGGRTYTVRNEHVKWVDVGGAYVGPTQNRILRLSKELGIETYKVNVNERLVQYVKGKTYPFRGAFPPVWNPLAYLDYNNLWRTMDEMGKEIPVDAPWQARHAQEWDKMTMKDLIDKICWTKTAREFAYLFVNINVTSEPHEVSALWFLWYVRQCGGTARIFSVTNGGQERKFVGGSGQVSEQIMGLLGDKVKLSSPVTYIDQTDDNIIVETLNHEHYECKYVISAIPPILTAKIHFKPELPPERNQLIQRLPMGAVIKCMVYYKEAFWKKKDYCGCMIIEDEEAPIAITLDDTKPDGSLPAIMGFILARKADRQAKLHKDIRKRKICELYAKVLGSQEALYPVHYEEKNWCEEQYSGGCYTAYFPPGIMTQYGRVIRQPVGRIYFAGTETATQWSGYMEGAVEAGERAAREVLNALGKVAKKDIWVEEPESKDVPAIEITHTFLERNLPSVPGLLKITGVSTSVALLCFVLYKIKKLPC
The assay is described as follows: Inhibition of MAOA in Sprague-Dawley rat brain mitochondria using kynuramine substrate by fluorimetry.

In assay [2] the target is T2, Amine oxidase [flavin-containing] B (Rattus norvegicus, UniProt P19643).
T2 sequence (P19643 whole entry): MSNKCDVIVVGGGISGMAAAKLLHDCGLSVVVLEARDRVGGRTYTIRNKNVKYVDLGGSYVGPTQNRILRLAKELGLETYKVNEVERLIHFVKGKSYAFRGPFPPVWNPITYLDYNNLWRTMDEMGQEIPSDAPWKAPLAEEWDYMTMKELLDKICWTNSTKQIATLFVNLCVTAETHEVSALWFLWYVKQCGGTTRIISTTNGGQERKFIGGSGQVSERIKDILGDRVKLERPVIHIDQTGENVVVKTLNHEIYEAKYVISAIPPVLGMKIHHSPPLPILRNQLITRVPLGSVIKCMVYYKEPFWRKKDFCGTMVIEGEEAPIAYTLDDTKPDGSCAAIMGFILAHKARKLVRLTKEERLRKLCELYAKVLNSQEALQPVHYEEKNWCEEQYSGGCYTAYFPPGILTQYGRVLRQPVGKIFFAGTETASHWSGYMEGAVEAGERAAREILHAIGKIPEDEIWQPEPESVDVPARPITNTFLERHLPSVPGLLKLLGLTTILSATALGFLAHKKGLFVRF
Kind of assay: Inhibition of MAOB in Sprague-Dawley rat brain mitochondria using kynuramine substrate by fluorimetry.

By IC50 is commonly meant the concentration needed to halve the response being measured. As to `O=C(NCCN1CCOCC1)c1cnc(Cl)c(Cl)c1`, the IC50 turned out to be 0.084 µM in assay [1] and 48 µM in assay [2].
Turning to `Cc1ccc(C(=O)NCCCN2CCOCC2)cn1`, the 50% inhibitory concentration (IC50) in assay [1] and in assay [2] was above 100 µM throughout.
As for `O=C(NCCN1CCOCC1)c1ccc(Cl)nc1`, the results for the IC50 in assay [1] and in assay [2] were 0.18 µM and 34 µM, respectively.
Consider `O=C(NCCN1CCOCC1)c1ccc(=O)[nH]c1`, for which the IC50 was 0.43 µM in assay [1] and above 100 µM in assay [2].
On the same counts, the results for `O=C(NCCCN1CCOCC1)c1ccc(O)nc1` are 56 µM and above 100 µM.
On the same counts, the results for `Cc1ccc(C(=O)NCCCN2CCOCC2)c(Cl)n1` are above 100 µM and above 100 µM.
As for `O=C(NCCCN1CCOCC1)c1cnc(Cl)c(Cl)c1`, the figures for the IC50 in assay [1] and in assay [2] were 0.1 µM and 45 µM, respectively.
On to `O=C(NCCCN1CCOCC1)c1c[nH]c(=O)c(Cl)c1`, for which the IC50 in assay [1] is 12 µM; in assay [2] it was 82 µM.
In the case of `O=C(NCCN1CCOCC1)c1cccnc1O`, the half-inhibitory concentration (IC50) in assay [1] was 45 µM; in assay [2], above 100 µM.
On the same counts, the results for `O=C(NCCN1CCOCC1)c1cnccc1Cl` are 0.75 µM and 74 µM.
Taken in the same sequence, the figures for `O=C(NCCN1CCOCC1)c1cncc(Br)c1` were 26 µM and 55 µM.
For the compound `Cc1ccc(C(=O)NCCN2CCOCC2)cn1`, the IC50 in assay [1] is 86 µM; in assay [2], above 100 µM.
On the same counts, the results for `O=C(NCCCN1CCOCC1)c1cccnc1Br` are 35 µM and 1.9 µM.
Turning to `O=C(NCCCN1CCOCC1)c1ccc[nH]c1=O`, the IC50 in assay [1] and in assay [2] was above 100 µM throughout.
Regarding `O=C(NCCCN1CCOCC1)c1cnccc1Cl`, the concentration for half-maximal inhibition (IC50) in assay [1] is 7.5 µM; in assay [2] it was 53 µM.
Regarding `O=C(NCCCN1CCOCC1)c1cncc(Br)c1`, the half-maximal inhibitory concentration (IC50) was determined as 23 µM in assay [1] and 65 µM in assay [2].
On the same counts, the results for `O=C(NCCCN1CCOCC1)c1ccc(F)nc1` are 80 µM and above 100 µM.
For `O=C(NCCN1CCOCC1)c1cccnc1Cl`, the IC50 in assay [1] turned out to be 2.6 µM; in assay [2], 1.8 µM.
Regarding `Cc1ccc(C(=O)NCCN2CCOCC2)c(Cl)n1`, the IC50 in assay [1] is 28 µM; in assay [2], above 100 µM.
For `O=C(NCCN1CCOCC1)c1cnc(O)c(Cl)c1`, the IC50 in assay [1] is 0.045 µM; in assay [2] it was 26 µM.
On to `O=C(NCCCN1CCOCC1)c1cccnc1`, for which the IC50 in assay [1] and in assay [2] was above 100 µM throughout.
Consider `O=C(NCCN1CCOCC1)c1cccnc1`, for which the IC50 is 68 µM in assay [1] and above 100 µM in assay [2].
As to `O=C(NCCN1CCOCC1)c1cccnc1Br`, the IC50 in assay [1] turned out to be 8.5 µM; in assay [2] it was 0.32 µM.
Taken in the same sequence, the figures for `O=C(NCCCN1CCOCC1)c1cccnc1Cl` were 9.4 µM and 6.5 µM.
Turning to `O=C(NCCCN1CCOCC1)c1ccc(Cl)nc1`, the results for the half-inhibitory concentration (IC50) in assay [1] and in assay [2] were 0.38 µM and 75 µM, respectively.
As for `O=C(NCCN1CCOCC1)c1ccc(F)nc1`, the IC50 is 15 µM in assay [1] and above 100 µM in assay [2].
Take `O=C(NCCN1CCOCC1)c1ccc(Cl)cc1` [MOCLOBEMIDE]: the concentration for half-maximal inhibition (IC50) in assay [2] was above 100 µM.
